Test: xn = mol fraction of the nth substance listed
Details: 101 kPa, Liquid

ClCCl [dichloromethane] + CCOS(=O)(=O)[O-].CCn1cc[n+](C)c1
mass density [kg/m3]
Details	278.15 K	283.15 K	288.15 K	293.15 K	298.15 K	303.15 K	308.15 K
x1 = 0.0375	1252.39	1248.82	1245.38	1241.96	1238.55	1235.13	1231.72
x1 = 0.0731	1254.22	1250.64	1247.19	1243.72	1240.27	1236.81	1233.36
x1 = 0.1117	1255.78	1252.22	1248.72	1245.22	1241.73	1238.24	1234.76
x1 = 0.1664	1258.85	1255.31	1251.75	1248.14	1244.63	1241.08	1237.55
x1 = 0.2488	1263.74	1260.06	1256.38	1252.7	1249.03	1245.37	1241.71
x1 = 0.3308	1268.9	1265.09	1261.28	1257.48	1253.69	1249.9	1246.13
x1 = 0.4023	1274.69	1270.74	1266.78	1262.82	1258.9	1254.97	1251.05
x1 = 0.4624	1279.33	1275.26	1271.18	1267.11	1263.05	1259	1254.96
x1 = 0.5776	1290.69	1286.28	1281.87	1277.47	1273.07	1268.69	1264.32
x1 = 0.6593	1299.95	1295.23	1290.51	1285.8	1281.09	1276.39	1271.69
x1 = 0.7684	1315.91	1310.52	1305.14	1299.77	1294.38	1289	1283.61
x1 = 0.8377	1327.28	1321.28	1315.26	1309.25	1303.21	1297.16	1291.11
x1 = 0.8856	1335.58	1328.97	1322.35	1315.72	1309.05	1302.36	1295.65
x1 = 0.9207	1341.3	1334.16	1326.99	1319.81	1312.58	1305.32	1298.03
x1 = 0.9475	1345.71	1338.05	1330.35	1322.64	1314.87	1307.06	1299.21
x1 = 0.9687	1349.06	1340.91	1332.71	1324.48	1316.18	1307.85	1299.46
x1 = 0.9858	1351.32	1342.72	1334.07	1325.38	1316.61	1307.8	1298.92
x1 = 1	1352.84	1343.8	1334.71	1325.58	1316.34	1307.06	1297.69

CCOS(=O)(=O)[O-].CCn1cc[n+](C)c1 [1-ethyl-3-methylimidazolium ethyl sulfate] + CC#N
mass density [kg/m3]
Details	278.15 K	283.15 K	288.15 K	293.15 K	298.15 K	303.15 K	308.15 K
x2 = 0	1251.04	1247.5	1244.04	1240.66	1237.27	1233.89	1230.51
x2 = 0.0051	1250.84	1247.29	1243.84	1240.44	1237.06	1233.68	1230.3
x2 = 0.0099	1250	1246.45	1243.01	1239.61	1236.22	1232.83	1229.45
x2 = 0.0202	1249.09	1245.54	1242.11	1238.69	1235.31	1231.91	1228.53
x2 = 0.0499	1245.66	1242.09	1238.68	1235.26	1231.85	1228.44	1225.03
x2 = 0.1001	1239.88	1236.38	1232.93	1229.48	1226.04	1222.6	1219.16
x2 = 0.1426	1236.22	1232.77	1229.28	1225.81	1222.35	1218.9	1215.45
x2 = 0.2507	1218.64	1215.07	1211.5	1207.95	1204.39	1200.86	1197.33
x2 = 0.3434	1202.08	1198.44	1194.79	1191.15	1187.54	1183.93	1180.33
x2 = 0.4592	1177.36	1173.6	1169.85	1166.12	1162.39	1158.68	1154.98
x2 = 0.5799	1140.91	1137	1133.1	1129.22	1125.35	1121.49	1117.63
x2 = 0.679	1101.24	1097.17	1093.12	1089.08	1085.03	1081	1076.97
x2 = 0.7423	1068.73	1064.52	1060.33	1056.15	1051.97	1047.8	1043.63
x2 = 0.7865	1041.05	1036.74	1032.43	1028.13	1023.83	1019.53	1015.24
x2 = 0.8539	988.5	983.97	979.43	974.91	970.37	965.84	961.31
x2 = 0.897	945.89	941.18	936.47	931.76	927.04	922.31	917.58
x2 = 0.9342	902.15	897.28	892.39	887.47	882.61	877.89	873.12
x2 = 0.9567	871.14	866.13	861.1	856.07	851.01	845.95	840.87
x2 = 0.9707	849.53	844.43	839.31	834.19	829.04	823.87	818.69
x2 = 0.9803	833.78	828.62	823.44	818.24	813.02	807.78	802.52
x2 = 0.9872	821.79	816.57	811.34	806.09	800.81	795.52	790.19
x2 = 0.9925	812.49	807.23	801.95	796.67	791.34	786	780.62
x2 = 0.9967	804.39	799.09	793.78	788.44	783.08	777.69	772.28
